Assay results published in patent publication US10449198B2, “Method for treating pain” (The University of Liverpool, priority 2016, dated 2019).

Tests used:
[1] = system: neuropathic rats; test: Neuropathic pain model (partial sciatic nerve ligation): tactile allodynia / mechanical paw withdrawal thresholds; assay type: in vivo, rat
Procedure: Fasted, male, Wistar rats. n=6/group. Vehicle: 10% DMSO/10% Solutol HS15/80% saline. 10 ml/kg p.o. One-way ANOVA, comparison with time-matched vehicle group using Tukey's HSD test, *p<0.05, **p<0.01, ***p<0.001
Protocol for study of compounds in a model of neuropathic pain: reversal of tactile allodynia.
(§1) • 1) In rats a peripheral neuropathy was induced by partial ligation of the sciatic nerve in one hind limb. • 2) Two weeks (12-15 days) after induction of peripheral neuropathy stable mechanical (tactile) allodynia was induced in the hind paw of the affected limb. • 3) Five treatment groups of male SD rats (n=8) were used: vehicle control (drug formulation), 3 drug doses, and a positive control, lamotrigine (30 mg/kg). Animals were randomized between groups and the experiment was carried out using blinded conditions. The study was split with n=4/group in each experiment. • 4) Baseline behavioural measurements were obtained prior to surgery and at intervals post-surgery. Predose behavioural measurements were obtained by measuring paw withdrawal thresholds 12-15 days following nerve ligation. • 5) Compound efficacy was determined by measuring paw withdrawal thresholds at specified intervals following vehicle/compound treatment. Animals
All animal procedures were carried out in accordance with the UK Animals (Scientific Procedures) Act 1986 and associated guidelines. Animals were maintained in a controlled lighting environment and given food and water ad libitum. Male Sprague Dawley rats (120-140 g at time of surgery) were used.
Tests compounds as well as lamotrigine (30 mg/kg, volume: 10 ml/kg)) were prepared in the designated formulation (10% DMSO, Solutol HS 15/80% and 0.9% saline for p.o. administration) and administered via the chosen route.
Allodynia was examined in the model of neuropathic pain induced by partial ligation of the sciatic nerve as described by Seltzer et al (1990). […]
Tactile allodynia was assessed by measuring withdrawal thresholds to calibrated von Frey hairs. […] The lowest amount of force required to elicit a response was recorded as the paw withdrawal threshold (in grams).
Allodynia was measured on both the ipsilateral (ligated) and contralateral (non-ligated) paw prior to (pre-dose) and at a set time point following compound or vehicle administration (post-dose). […]
(§2) Compound/vehicle were administered at specified doses. Following treatment, further readings were taken; 1, 3, 6 and 24 hour after p.o. administration.
(§3) Raw data were analysed using parametric statistical tests, including one-way analysis of variance (ANOVA) followed by Tukey's post hoc test repeated measures of ANOVA. […]

[2] = system: neuropathic rats; test: Neuropathic pain model (partial sciatic nerve ligation): cold hyperalgesia, 10° C. cold plate paw withdrawal latency; assay type: in vivo, rat
Procedure: Fasted, male, Wistar rats. n=6/group. Vehicle: 10% DMSO/10% Solutol HS15/80% saline. 10 ml/kg p.o. One-way ANOVA, comparison with time-matched vehicle group using Tukey's HSD test, *p<0.05, **p<0.01, ***p<0.001.
as §1, with “treatment. Animals […]” for “treatment. Animals”
as §2
Cold sensitivity was assessed using a commercially available cold-plate (Ugo Basile, Milan). The cold-plate was set according to pre-determined calibration data using a surface temperature probe to correlate set temperature to actual surface temperature over a wide temperature range (−5° C. to 26° C.). […] Paw withdrawal latencies were determined with the cold-plate set at 10° C. […] The end point was taken as the withdrawal of the paw and recorded as the withdrawal latency for the ipsilateral and the contralateral paw. […]
as §3

[3] = biological target: T1, α1 glycine (Homo sapiens, UniProt P23415); test: Glycine receptor activity, two-electrode voltage-clamp in Xenopus laevis oocytes; assay type: cell-based; settings: TEVC, holding potential −70 mV
T1 construct: expressed in transfected cells; host or cells: Xenopus laevis oocytes (cRNA injection)
T1 sequence (P23415 29-457): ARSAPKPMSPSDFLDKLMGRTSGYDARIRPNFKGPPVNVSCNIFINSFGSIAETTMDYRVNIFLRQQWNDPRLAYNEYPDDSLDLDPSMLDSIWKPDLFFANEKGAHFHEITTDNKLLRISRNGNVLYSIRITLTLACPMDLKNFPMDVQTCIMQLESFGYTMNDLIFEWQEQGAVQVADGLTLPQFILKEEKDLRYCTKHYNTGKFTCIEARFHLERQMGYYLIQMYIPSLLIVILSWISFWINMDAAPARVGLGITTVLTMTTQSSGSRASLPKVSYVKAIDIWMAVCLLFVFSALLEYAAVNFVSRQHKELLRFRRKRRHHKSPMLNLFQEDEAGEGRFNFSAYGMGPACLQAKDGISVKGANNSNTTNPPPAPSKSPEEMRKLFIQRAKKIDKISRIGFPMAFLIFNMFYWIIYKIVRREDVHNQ
Procedure: Oocytes were surgically removed from adult female Xenopus laevis clawfrogs anaesthetized by immersion in 0.3% tricaine in water (w/v). All protocols were approved by the local animal care and use committee (II25.3-19c20/15; RP Darmstadt, Germany). Stage V and VI Oocytes were dissected and stored in sterile-filtered ND96 medium (composition in mM: 96 NaCl, 2 KCl, 1 CaCl, 1 MgCl, 5 HEPES, pH 7.4) containing gentamycin (50 μg/mL). The oocytes were isolated and enzymatically and maintained as described previously (Grudzinska et al., 2005). Oocytes were injected with 5 ng of cRNA using a Drummond microinjector (Drummond Scientific, Broomall, USA) and incubated in ND96 for 24 h at 18° C. before electrophysiological recording. Two-electrode voltage-clamp (TEVC) with microelectrodes containing 3 M KCl was performed in bath solution at a holding potential of −70 mV as described previously (Laube et al., 2000). […]
Currents were measured with Clampfit 9.2 software (Molecular Devices), Results were analyzed using the KaleidaGraph program (Synergy Software, Reading, Pa.) and GraphPad Prism version 5.0 (GraphPad Software Inc., San Diego, Calif.). […] For propofol and 4-chloropropofol modulation, responses to EC20 glycine after application were analyzed as described previously (Lynagh and Laube, 2014); mean±standard error of the mean (SEM) are reported. […]

[4] = contralateral (non-ligated) paw

Structure (SMILES): CC(C)(C)c1cc(C(=O)N2CCOCC2)cc(C(C)(C)C)c1O [Compound 82, (3,5-Di-tert-butyl-4-hydroxyphenyl)(morpholino) methanone]
- Peak reversal of tactile allodynia ([1]; 30 mg/kg p.o., at 1 h, ipsilateral paw, neuropathic rats): 72%
- Efficacy across doses (cold and mechanical parameters) ([1]; all three doses, p.o.): good and dose-related efficacy
- Contralateral paw withdrawal thresholds to mechanical pressure [1, 4]: significant increase
- Reversal of mechanical (paw pressure) parameter ([1]; p.o., neuropathic rats): marked and long-lasting reversal
- Peak reversal of cold hyperalgesia ([2]; 30 mg/kg p.o., at 1 h, 10° C. cold plate, neuropathic rats): 74%
- Contralateral paw withdrawal latencies to cold [2, 4]: increased
- Reversal of cold (10° C. cold plate) parameter ([2]; p.o., neuropathic rats): marked and long-lasting reversal
- EC50 [3]: 0.46 nM
- melting point: 174 to 176 °C
